Source: patent US8829014B2, “Thiazole and thiophene analogues, and their use in treating autoimmune diseases and cancers” (Board of Supervisors of Louisiana State University and …, priority 2006, dated 2014)
Entries after “also recorded” stand apart in the source; their conditions may differ. Like-named read-outs stand apart in the source and are kept apart here.

Assays:
NF-κB [1] = experiment: NF-κB inhibitor screen: basal NF-κB-dependent luciferase expression in HEK/NF-κB cell line; type: cell-based
Method in brief: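 Basal NF-κB-driven luciferase (six-copy element, stable HEK293 line) was read with Brite-Glo. Compound was added in 0.3% DMSO 24 h post-plating, initially at 1.0 μM and then across 10–3300 nM in six steps, in triplicate wells. Signals were expressed relative to DMSO or to the lowest concentration tested.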

eIF4E = eIF4E inhibitor screen: luciferase under FGF 5′UTR in FaDu cells (highly cap-dependent translation); type: cell-based; conditions: for luciferase expression under the control of the FGF 5′UTR: 1.0 μM, 48 h, FaDu UTR cells, normalized to DMSO (FIG. 8)
Description: Since highly cap-dependent translation is associated with synthesis of proteins involved in cancer, a compound that inhibits this pathway may be used as an anti-cancer agent. The assay was developed by cloning the highly structured 5′ UTR of FGF, which requires high levels of eIF4E before protein synthesis can initiate, into the proper orientation of the reporter gene luciferase, and then stably transfecting the modified luciferase gene into the cell line FaDu that is known to have high levels of eIF4E. The activity of luciferase is then monitored in the presence and absence of the tested compound.
Generation of Stable Cell Lines: The pMS110 plasmid (pGL3-control plasmid from Promega which contains a neo selectable marker) was used to generate pMS110-5′UTR by cloning the 5′ UTR of FGF just upstream of the luciferase AUG start codon. FaDu cells, a head and neck cancer cell line, were transfected using Lipofectamine2000 (Invitrogen). Twenty-four hours after transfection G418 was added at 500 μg/ml. Cells were maintained in G418 for 14 days, and then individual colonies were transferred to a 96-well plate for propagation. Individual clones were analyzed for luciferase expression by plating 10^4 cells per well in a 96-well plate for 24 hours before lysing the cells and analyzing for luciferase activity in a Victor III (Perkin Elmer) or Lucy2 (Rosys Anthos). FaDu9000 and FaDuUTR were the clones that expressed the highest level of active luciferase following transfection of pMS110 and pMS110-5′UTR, respectively.
Analysis of Rapamycin Responsiveness: Cells of FaDu9000 and FaDuUTR were plated at 1×10^4 cells/well in a 96-well dish. Twenty-four hours after plating, 0.1% DMSO (vehicle control) or 10 nM rapamycin were added to each well, and the cells were maintained for an additional 24 or 48 hours. The cells were then lysed and luciferase activity was determined using BriteGlo (Promega) as per manufacturer's instruction and recorded using the Victor III. Following subtraction of background activity, the mean value of quadruplicate samples for a given experiment was determined, and the treated cells were normalized to the control. At least four separate experiments were conducted, and the mean and standard error were calculated. To determine if rapamycin affected cell viability, an MTS assay (Cell Proliferation One Solution, Promega) was carried out on each population at 48 hours in two separate experiments.
The FaDu cell line stably transfected with FGF 5′UTR was used to screen thirty-nine representative compounds, each at a concentration of 1.0 μM. Additional cells were treated with vehicle, 0.3% DMSO. Cells were plated for twenty-four hours in a 96-well plate. Each compound was then added to triplicate wells, and the cells were incubated for forty-eight hours before measuring luciferase activity as above. The mean luciferase activity was measured using Promega's Brite-Glo kit, and the mean for each sample was normalized to DMSO. The experiment was then repeated, and the average and standard deviation of the two experiments were determined (FIG. 8).

AP-1 [2] = experiment: AP-1 inhibitor screen: basal AP-1-dependent luciferase expression in HEK/AP-1 cell line; type: cell-based
Method in brief: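 Compound effects on unstimulated reporter signal were tested: 1.0 μM compound (0.3% DMSO) for 48 hr on HEK cells bearing an AP-1 (TGACTAA ×3)-luciferase construct, seeded 24 hr earlier. Triplicate luminescence means were normalized to DMSO-only wells; dose-response experiments were repeated 2–4 times.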

carageenan-induced edema = experiment: Carrageenan-induced rat paw edema test (anti-inflammatory activity); type: in vivo, Sprague-Dawley rats; conditions: for inhibition in vivo at 50 mg/kg: po, 3 h
Method in brief: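 Edema was raised by sub-plantar injection of 1% carrageenan into the right hind paw, 1 h after dosing 18 h-fasted male/female Sprague-Dawley rats (150-250 g) with 50 mg/kg p.o. in 0.1% CMC. Swelling was measured by displacement 3 h later and expressed as % protection against saline control.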

AP-1 [3] = experiment: PMA-induced AP-1 luciferase expression in HEK cells; type: cell-based
NF-κB [4] = experiment: TNF-α-induced NF-κB-dependent luciferase expression in HEK cells; type: cell-based; design: NF-κB % inhibition: concentration or dose not given beside the values
[5] = system: cell lines from the prostate, one tumorigenic and one non-tumorigenic; experiment: MTT viability in prostate cell line pair, tumorigenic and non-tumorigenic; type: cell-based; conditions: 10 μM, 48 h, tumorigenic vs non-tumorigenic line
Protocol: Additional compounds have also been tested for their ability to inhibit both TNF-α-induced NF-κB—expression and PMA-induced AP-1 expression. In both tests, the compound was added for 1 h, then the appropriate inducer was added, and luciferase activity was monitored 24 h later. Values were then normalized to the vehicle control, DMSO. Following the initial luciferase screens, studies were conducted to assess the cytotoxicity of the compounds in normal cells such as VSMC, HUVEC, or HPT cells. Human umbilical vein endothelial cells (HUVEC) represent the normal endothelium, vascular smooth muscle cells (VSMC) were represented by cells from the adult rat aorta, and human proximal tubule (HPT) cells represent the normal proximal tubule in vivo. These cells were grown to near confluency in multi-well plates, and were then treated for 48 h with either vehicle (0.1% DMSO) or 10 μM of each drug candidate. Following treatment, the media from the VSMC and HUVEC incubations were removed, and the amount of lactate dehydrogenase (LDH) released into the medium was determined with a commercial kit. LDH is normally confined to the cytosol, and its release represents “leakiness” of the plasma membrane. LDH activity was expressed as % increase over vehicle-treated cells. […] The number of both live and dead cells was counted using an automated cell viability analyzer. The % decrease in numbers of viable cells was determined. Toxicity in the treated HPT cells was determined by the ethidium homodimer (EthHD) uptake assay. […] Results were expressed as a % increase in cell death over vehicle-treated cells. […] Following treatment, the viability of the cells was determined by the MTT assay. In this assay, the MTT dye is converted only in viable cells by intracellular enzymes to a colorimetric product that is quantitated by a microplate reader.
For the results in Table 13, cells were grown to near confluency in multi-well plates, then treated for 48 h with either vehicle (0.1% DMSO) or 10 μM of each drug candidate. Following treatment, the media from the VSMC and HUVEC incubations were removed, and the amount of lactate dehydrogenase (LDH) released into the medium was determined with a commercial kit and expressed as a % increase over vehicle-treated cells. HPT toxicity was determined by the ethidium homodimer (EthHD) uptake assay. Inside the cell, EthHD produces a strong fluorescent signal, which is proportional to the amount of cell death, expressed as a % increase in cell death over vehicle-treated cells. […] The cells were treated for 48 h with vehicle (0.1% DMSO) or 10 μM of each drug candidate, and the viability of the cells was determined by the MTT assay, expressed as a % decrease in viability compared to vehicle-treated cells. […]

[6] = system: cell lines from the skin, one tumorigenic and one non-tumorigenic; experiment: MTT viability in skin cell line pair, tumorigenic and non-tumorigenic; type: cell-based; conditions: 10 μM, 48 h, MTT; tumorigenic vs non-tumorigenic line
Protocol: Additional compounds have also been tested for their ability to inhibit both TNF-α-induced NF-κB—expression and PMA-induced AP-1 expression. In both tests, the compound was added for 1 h, then the appropriate inducer was added, and luciferase activity was monitored 24 h later. Values were then normalized to the vehicle control, DMSO. Following the initial luciferase screens, studies were conducted to assess the cytotoxicity of the compounds in normal cells such as VSMC, HUVEC, or HPT cells. Human umbilical vein endothelial cells (HUVEC) represent the normal endothelium, vascular smooth muscle cells (VSMC) were represented by cells from the adult rat aorta, and human proximal tubule (HPT) cells represent the normal proximal tubule in vivo. These cells were grown to near confluency in multi-well plates, and were then treated for 48 h with either vehicle (0.1% DMSO) or 10 μM of each drug candidate. Following treatment, the media from the VSMC and HUVEC incubations were removed, and the amount of lactate dehydrogenase (LDH) released into the medium was determined with a commercial kit. LDH is normally confined to the cytosol, and its release represents “leakiness” of the plasma membrane. LDH activity was expressed as % increase over vehicle-treated cells. In another assay of viability, the treated VSMC and HUVEC were removed by trypsinization and treated with trypan blue, a dye that is taken up only by dead cells. The number of both live and dead cells was counted using an automated cell viability analyzer. The % decrease in numbers of viable cells was determined. Toxicity in the treated HPT cells was determined by the ethidium homodimer (EthHD) uptake assay. EthHD is a fluorescent dye that is excluded from live cells, but is taken up by cells that have lost permeability barriers. Inside the cell, EthHD produces a strong fluorescent signal, which is proportional to the number of dead cells. Results were expressed as a % increase in cell death over vehicle-treated cells. The lead compounds were also tested in two pairs of cell lines from either the skin or prostate, one tumorigenic and one non-tumorigenic, to test for any differences in toxicity or heightened sensitivity in the tumorigenic lines. The cells were treated for 48 h with vehicle (0.1% DMSO) or 10 μM of each drug candidate. Following treatment, the viability of the cells was determined by the MTT assay. In this assay, the MTT dye is converted only in viable cells by intracellular enzymes to a colorimetric product that is quantitated by a microplate reader.
For the results in Table 13, cells were grown to near confluency in multi-well plates, then treated for 48 h with either vehicle (0.1% DMSO) or 10 μM of each drug candidate. Following treatment, the media from the VSMC and HUVEC incubations were removed, and the amount of lactate dehydrogenase (LDH) released into the medium was determined with a commercial kit and expressed as a % increase over vehicle-treated cells. HPT toxicity was determined by the ethidium homodimer (EthHD) uptake assay. Inside the cell, EthHD produces a strong fluorescent signal, which is proportional to the amount of cell death, expressed as a % increase in cell death over vehicle-treated cells. The lead compounds were also tested in two pairs of cell lines from the skin or prostate, one tumorigenic and one non-tumorigenic, to test for differing toxicity or heightened sensitivity in the tumorigenic lines. The cells were treated for 48 h with vehicle (0.1% DMSO) or 10 μM of each drug candidate, and the viability of the cells was determined by the MTT assay, expressed as a % decrease in viability compared to vehicle-treated cells. The in vivo inflammation model measured the % inhibition of rat paw edema induced by carageenan injection.

Compound: 2-(4-Methyl-2-methylamino-thiazol-5-yl)-3-(4-chloro-phenyl)-3H-quinazolin-4-one [Example 244]
- basal NF-κB-dependent luciferase, six-point dose response (NF-κB [1]; 10 nM-3300 nM (FIG. 12), listed as Compound 4): substantial activity at submicromolar concentrations; also recorded: robust inhibition
- inhibition of basal NF-κB-dependent luciferase expression (NF-κB [1]; 3.3 μM (FIG. 12)): about 50%
- inhibition of NF-κB (summary statement) (NF-κB [1]; summary in the disclosure): capable of inhibiting
- luciferase expression under the control of the FGF 5′UTR (eIF4E): inhibited luciferase expression
- inhibition of highly cap-dependent translation (summary statement) (eIF4E; summary in the disclosure): capable of inhibiting
- basal AP-1-dependent luciferase, six-point dose response (AP-1 [2]; 10 nM-3300 nM (FIG. 14)): substantial activity at submicromolar concentrations

Compound: COc1ccc(C(=O)c2sc(Nc3ccccc3)nc2N)cc1 [Example 115, (4-Amino-2-phenylamino-thiazole-5-yl)-4-(methoxy-phenyl)-methanone]
- basal NF-κB-dependent luciferase expression (NF-κB [1]; 1.0 μM screen of 39 compounds (FIG. 11)): potentiated expression in one of the two experiments
- luciferase expression under the control of the FGF 5′UTR (eIF4E): increased luciferase expression
- % Protection P (carageenan-induced edema; rat paw edema, 50 mg/kg, reading 3 hours after carrageenan, [(Control−Test)/Control]×100%, 50 mg/kg): 90.92%

Compound: O=C(c1sc(Nc2ccccc2)nc1-c1ccccc1)c1sc(Nc2ccccc2)nc1-c1ccccc1 [Example 126, Bis-(2-phenylamino-4-phenyl-thiazole-5-yl)-methanone]
- luciferase expression under the control of the FGF 5′UTR (eIF4E): increased luciferase expression
- inhibition at 1 µM (AP-1 [3]; AP1, 1 uM, luciferase in HEK/AP-1 cells, as described in Example 398): 27.1%
- inhibition at 1 µM (NF-κB [4]; Homo sapiens, HEK293, 1 uM, luciferase in HEK/NF-κB cells, as described in Example 398, read-out: NFkB inhibition @ 1 uM): 22.2%
- inhibition in vivo at 50 mg/kg (carageenan-induced edema; Rattus norvegicus, rat paw edema, 50 mg/kg, reading 3 hours after carrageenan, [(Control−Test)/Control]×100%, read-out: % Protection P): 64.5%

Compound: CCOC(=O)Nc1nc(-c2ccccc2)c(-c2nc3ccccc3c(=O)n2-c2ccccc2)s1 [Example 159, [5-(4-Oxo-3-phenyl-3,4-dihydro-quinazolin-2-yl)-4-phenyl-thiazol-2-yl]-carbamic acid ethyl ester]
- inhibition at 1 µM (NF-κB [1]; 1 uM, determined as described in Example 398, read-out: NFkB inhibition @ 1 uM): 80%
- luciferase expression under the control of the FGF 5′UTR (eIF4E): increased luciferase expression
- inhibition in vivo at 50 mg/kg (carageenan-induced edema; carrageenan-induced rat paw edema, defined in Example 397, read-out: % Protection): 75%
- inhibition at 1 µM (AP-1 [2]; AP1, 1 uM, determined as described in Example 398): 7%

Compound: Cc1ccccc1-n1c(-c2sc(Nc3ccccc3)nc2C)nc2ccccc2c1=O [PMCR 20]
- AP-1 % inhibition (AP-1 [3]; four lead compounds, Table 13): 73%
- NF-κB % inhibition (NF-κB [4]; four lead compounds, Table 13): 21%
- Differential Toxicity* Prostate [5]: Cancer
- In vivo inflammation % inhibition (carageenan-induced edema; rat paw edema induced by carageenan injection): 42%
- Differential Toxicity* Skin [6]: Neither
